From US8846699B2, “Quinazoline derivatives as a multiplex inhibitor and method for the preparation thereof” (Hanmi Pharm. Co., Ltd., priority 2005, dated 2014)

Key:
[1] = test system: breast cancer cell line, SK-Br3; experiment: Inhibitory effect on growth of cancer cell line SK-Br3, SRB; type: cell-based; conditions: overexpressed EGFR2 (HER-2)
Summary of the method: (§1)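 Growth inhibition was measured by sulforhodamine-B staining (absorbance 570 nm) of TCA-fixed cells after 72 h compound exposure at 37 °C, 5% CO2. Test concentrations ran from 10 μM in 10-fold steps to 10^−4, with DMSO below 1%, in 10% FBS DMEM.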

VEGFR2 (KDR) = VEGFR2 (KDR) (Homo sapiens (Human), UniProt P35968); experiment: VEGFR2 (KDR) enzyme assay, fluorescence polarization; type: biochemical; conditions: 5 μM ATP, poly(Glu, Tyr) substrate
Summary of the method: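 Buffer: 20 mM HEPES pH 7.4 with 5 mM MgCl2, 2 mM MnCl2 and 50 μM Na3VO4. Compound (0.0001–10 μM) was premixed 10 min with VEGFR2 (200 ng/10 μl), then poly(Glu,Tyr) substrate (10 ng/ml) and 5 μM ATP were added for 1 h at room temperature. EDTA-quenched samples were read by FP after 30 min with antibody and tracer.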

[2] = test system: skin cancer cell line, A431; experiment: Inhibitory effect on growth of cancer cell line A431, SRB; type: cell-based; conditions: overexpressed EGFR1 (HER-1)
Summary of the method: as §1

[3] = test system: colon and rectal cancer cell line, SW-620; experiment: Inhibitory effect on growth of cancer cell line SW-620, SRB; type: cell-based; conditions: not having overexpressed EGFR and EGFR2
Summary of the method: as §1

EGFR1 (HER-1) = EGFR1 (HER-1) (Homo sapiens (Human), UniProt P00533); experiment: EGFR1 (HER-1) enzyme assay, fluorescence polarization; type: biochemical; conditions: 100 μM ATP, poly(Glu, Tyr) substrate
[4] = test system: Human Umbilical Vein Endothelial Cell (HUVEC); experiment: Inhibitory effect on growth of human umbilical vein endothelial cell (HUVEC), MTS; type: cell-based; conditions: 10 ng/ml VEGF, absorbance 490 nm

VEGFR2 (KDR), sequence (P35968 20-1356): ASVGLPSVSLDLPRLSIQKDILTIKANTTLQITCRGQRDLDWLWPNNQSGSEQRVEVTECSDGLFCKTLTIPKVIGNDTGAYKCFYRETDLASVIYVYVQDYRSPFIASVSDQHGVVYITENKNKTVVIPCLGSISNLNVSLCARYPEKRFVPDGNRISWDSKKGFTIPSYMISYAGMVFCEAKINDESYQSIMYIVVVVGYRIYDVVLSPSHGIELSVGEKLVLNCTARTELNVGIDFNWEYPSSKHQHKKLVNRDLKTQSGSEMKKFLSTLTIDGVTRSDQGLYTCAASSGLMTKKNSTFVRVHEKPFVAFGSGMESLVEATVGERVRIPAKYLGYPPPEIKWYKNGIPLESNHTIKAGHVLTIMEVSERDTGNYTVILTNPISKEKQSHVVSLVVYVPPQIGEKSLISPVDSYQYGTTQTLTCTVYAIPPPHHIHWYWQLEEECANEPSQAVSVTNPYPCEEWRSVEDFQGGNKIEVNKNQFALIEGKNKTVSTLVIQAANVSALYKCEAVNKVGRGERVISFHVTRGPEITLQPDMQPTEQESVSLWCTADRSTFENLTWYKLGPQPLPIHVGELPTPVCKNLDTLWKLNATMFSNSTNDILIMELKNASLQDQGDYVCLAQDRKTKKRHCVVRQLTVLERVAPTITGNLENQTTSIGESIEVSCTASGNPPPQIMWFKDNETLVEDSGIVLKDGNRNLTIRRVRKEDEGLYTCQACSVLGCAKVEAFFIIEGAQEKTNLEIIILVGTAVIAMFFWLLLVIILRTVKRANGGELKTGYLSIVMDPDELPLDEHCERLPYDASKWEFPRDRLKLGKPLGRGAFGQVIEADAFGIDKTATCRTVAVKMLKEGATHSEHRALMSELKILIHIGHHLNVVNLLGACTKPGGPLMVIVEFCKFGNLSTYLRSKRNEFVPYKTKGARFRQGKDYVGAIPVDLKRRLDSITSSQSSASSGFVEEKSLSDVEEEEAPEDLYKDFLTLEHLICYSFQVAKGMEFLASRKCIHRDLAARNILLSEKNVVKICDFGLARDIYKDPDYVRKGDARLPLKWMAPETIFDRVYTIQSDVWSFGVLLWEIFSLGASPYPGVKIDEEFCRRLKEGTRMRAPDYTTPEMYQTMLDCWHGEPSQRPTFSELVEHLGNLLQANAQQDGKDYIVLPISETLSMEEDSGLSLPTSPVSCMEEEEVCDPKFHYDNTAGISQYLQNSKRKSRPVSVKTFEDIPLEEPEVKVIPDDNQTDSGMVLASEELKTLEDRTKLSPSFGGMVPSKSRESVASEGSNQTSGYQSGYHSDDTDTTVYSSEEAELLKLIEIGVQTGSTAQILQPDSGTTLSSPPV
EGFR1 (HER-1), sequence (P00533 25-1210): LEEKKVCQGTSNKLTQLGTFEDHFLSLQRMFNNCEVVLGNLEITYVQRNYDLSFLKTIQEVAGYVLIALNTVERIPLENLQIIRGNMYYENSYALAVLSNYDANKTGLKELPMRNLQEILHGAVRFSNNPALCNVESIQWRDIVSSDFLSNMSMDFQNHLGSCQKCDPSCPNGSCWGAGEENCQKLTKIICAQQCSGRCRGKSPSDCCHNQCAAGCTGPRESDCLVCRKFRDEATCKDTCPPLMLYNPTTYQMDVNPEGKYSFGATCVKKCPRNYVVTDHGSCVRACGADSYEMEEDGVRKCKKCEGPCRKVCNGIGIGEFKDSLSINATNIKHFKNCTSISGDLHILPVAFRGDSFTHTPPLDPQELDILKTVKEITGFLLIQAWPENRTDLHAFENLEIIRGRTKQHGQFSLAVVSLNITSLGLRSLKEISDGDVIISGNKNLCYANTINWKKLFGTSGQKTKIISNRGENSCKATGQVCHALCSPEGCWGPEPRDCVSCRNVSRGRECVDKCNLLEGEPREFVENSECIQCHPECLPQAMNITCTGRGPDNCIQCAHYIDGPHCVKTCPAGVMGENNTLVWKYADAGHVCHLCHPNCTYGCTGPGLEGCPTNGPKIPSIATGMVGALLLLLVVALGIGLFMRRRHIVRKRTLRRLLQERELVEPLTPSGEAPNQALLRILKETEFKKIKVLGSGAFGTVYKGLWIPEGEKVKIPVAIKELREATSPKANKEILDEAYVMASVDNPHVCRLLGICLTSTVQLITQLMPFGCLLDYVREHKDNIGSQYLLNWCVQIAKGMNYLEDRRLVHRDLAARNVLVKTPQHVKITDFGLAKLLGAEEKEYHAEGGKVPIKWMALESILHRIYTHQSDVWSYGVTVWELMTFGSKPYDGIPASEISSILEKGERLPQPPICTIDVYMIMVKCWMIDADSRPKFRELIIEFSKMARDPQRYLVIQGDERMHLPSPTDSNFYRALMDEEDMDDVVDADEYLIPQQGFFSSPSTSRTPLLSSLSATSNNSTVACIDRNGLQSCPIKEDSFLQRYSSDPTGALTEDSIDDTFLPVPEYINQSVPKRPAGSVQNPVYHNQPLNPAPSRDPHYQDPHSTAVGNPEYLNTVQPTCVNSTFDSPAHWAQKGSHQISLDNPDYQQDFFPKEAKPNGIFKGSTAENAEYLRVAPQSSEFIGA

SMILES | IC50 ([1]; Homo sapiens, SK-BR-3, 72 h) [nM] | IC50 (VEGFR2 (KDR)) [nM] | IC50 ([2]; Homo sapiens, A-431, 72 h) [nM] | IC50 ([3]; Homo sapiens, 72 h) [µM] | IC50 (EGFR1 (HER-1)) [nM] | IC50 ([4]; Homo sapiens, 96 h) [nM] | IC50 ([1]; 72 hours) [nM] | IC50 ([2]; 72 hours) [nM] | IC50 ([3]; 72 hours) [µM] | IC50 ([4]; 96 hours) [nM]
C=CC(=O)Nc1cc2c(Nc3ccc(Br)cc3F)ncnc2cc1OCCNC(=O)CN(C)CC [Example 56, N-(4-(4-bromo-2-fluoro-phenylamino)-7-{2-[2-(ethyl-methyl-amino)-acetylamino]-ethoxy}-quinazolin-6-yl)-acrylamide] | 128 | 654 | 153 | 10 | 198 | 691 | – | – | – | –
C=CC(=O)Nc1cc2c(Nc3ccc(Br)cc3F)ncnc2cc1OCCNC(=O)CN [Example 57, N-[7-[2-(2-amino-acetylamino)-ethoxy]-4-(4-bromo-2-fluoro-phenylamino)-quinazolin-6-yl]-acrylamide] | 781 | 235 | 91 | 9.57 | 89 | 379 | – | – | – | –
C=CC(=O)Nc1cc2c(Nc3ccc(Br)cc3F)ncnc2cc1OCCNC(=O)C(C)N(C)C (stereo not drawn) [Example 58, N-{4-(4-bromo-2-fluoro-phenylamino)-7-[2-(2-dimethylamino-propionylamino)-ethoxy]-quinazolin-6-yl}-acrylamide] | 395 | 954 | 116 | 5.51 | 125 | 945 | – | – | – | –
C=CC(=O)Nc1cc2c(Nc3ccc(Br)cc3F)ncnc2cc1OCCNC(=O)CCN(CC)CC [Example 59, N-{4-(4-bromo-2-fluoro-phenylamino)-7-[2-(3-diethylamino-propionylamino)-ethoxy]-quinazolin-6-yl}-acrylamide] | 111 | 198 | 45 | 10 | 44 | 204 | – | – | – | –
C=CC(=O)Nc1cc2c(Nc3ccc(Br)cc3F)ncnc2cc1OCCNC(=O)CNC [Example 60, N-{4-(4-bromo-2-fluoro-phenylamino)-7-[2-(2-methylamino-acetylamino)-ethoxy]-quinazolin-6-yl}-acrylamide] | 939 | 685 | 125 | 9.57 | 136 | 689 | – | – | – | –
C=CC(=O)Nc1cc2c(Nc3ccc(Br)cc3F)ncnc2cc1OCCNC(=O)CCN(C)C [Example 61, N-{4-(4-bromo-2-fluoro-phenylamino)-7-[2-(3-dimethylamino-propionylamino)-ethoxy]-quinazolin-6-yl}-acrylamide] | 59 | 354 | 6 | 10 | 9 | 384 | – | – | – | –
C=CC(=O)Nc1cc2c(Nc3ccc(Br)cc3F)ncnc2cc1OCCNC(=O)OC [Example 63, {2-[6-acryloylamino-4-(4-bromo-2-fluoro-phenylamino)-quinazolin-7-yloxy]-ethyl}-carbamic acid methylester] | 198 | 84 | 140 | 10 | 158 | 102 | – | – | – | –
C=CC(=O)Nc1cc2c(Nc3ccc(Br)cc3F)ncnc2cc1OCCNC(=O)CCOC [Example 64, N-{4-(4-bromo-2-fluoro-phenylamino)-7-[2-(3-methoxy-propionylamino)-ethoxy]-quinazolin-6-yl}-acrylamide] | 360 | 231 | 72 | 4.59 | 70 | 298 | – | – | – | –
C=CC(=O)Nc1cc2c(Nc3ccc(Br)cc3F)ncnc2cc1OCC(=O)NCCN(CC)CC [Example 65, N-{4-(4-bromo-2-fluoro-phenylamino)-7-[(2-diethylamino-ethylcarbamoyl)-methoxy]-quinazolin-6-yl}-acrylamide] | 694 | 954 | 596 | 10 | 652 | 964 | – | – | – | –
C=CC(=O)Nc1cc2c(Nc3ccc(Br)cc3F)ncnc2cc1OCCNC(=O)CCO [Example 67, N-{4-(4-bromo-2-fluoro-phenylamino)-7-[2-(3-hydroxy-propionylamino)-ethoxy]-quinazolin-6-yl}-acrylamide] | 983 | 215 | 73 | 2.21 | 89 | 351 | – | – | – | –
C=CC(=O)Nc1cc2c(Nc3ccc(F)cc3F)ncnc2cc1OCCNC(=O)CN(C)C [Example 68, N-[4-(2,4-difluorophenylamino)-7-{2-[2-(dimethylamino)-acetylamino]-ethoxy}-quinazolin-6-yl]-acrylamide] | 564 | 687 | 265 | 0.725 | 156 | 682 | – | – | – | –
C=CC(=O)Nc1cc2c(Nc3ccc(Br)cc3F)ncnc2cc1OCCNC(=O)C(=O)OCC [Example 71, {2-[6-acryloylamino-4-(4-bromo-2-fluoro-phenylamino)-quinazolin-7-yloxy]-ethyl}-oxalamic acid ethylester] | 4400 | 251 | 100 | 2.98 | 98 | 286 | – | – | – | –
C=CC(=O)Nc1cc2c(Nc3ccc(Br)cc3F)ncnc2cc1OCCNC(=O)C(=O)O [Example 72, {2-[6-acryloylamino-4-(4-bromo-2-fluoro-phenylamino)-quinazolin-7-yloxy]-ethyl}-oxalamic acid] | 5410 | 84 | 125 | 10 | 102 | 106 | – | – | – | –
C=CC(=O)Nc1cc2c(Nc3ccc(Br)cc3F)ncnc2cc1OCCNC(=O)C=NOC [Example 73, N-{4-(4-bromo-2-fluoro-phenylamino)-7-[2-(2-methoxyimino-acetylamino)-ethoxy]-quinazolin-6-yl}-acrylamide] | 589 | 668 | 365 | 10 | 256 | 634 | – | – | – | –
C=CC(=O)Nc1cc2c(Nc3ccc(Br)cc3F)ncnc2cc1OCCNC(=O)C(C)CN(C)C (stereo not drawn) [Example 74, N-{4-(4-bromo-2-fluoro-phenylamino)-7-[2-(3-dimethylamino-2-methyl-propionylamino)-ethoxy]-quinazolin-6-yl}-acrylamide] | 658 | 372 | 321 | 0.726 | 251 | 358 | – | – | – | –
CCC(=O)Nc1cc2c(Nc3ccc(Br)cc3F)ncnc2cc1OCCNC(C)=O [Example 77, propionic acid [7-(2-acetylamino-ethoxy)-4-(4-bromo-2-fluoro-phenylamino)-quinazolin-6-yl]-amide] | 7800 | 365 | 951 | 10 | 866 | 350 | – | – | – | –
C=CC(=O)Nc1cc2c(Nc3ccc(Br)c(F)c3)ncnc2cc1OCCNC(=O)CN(C)C [Example 79, N-4-(4-bromo-3-fluoro-phenylamino)-7-[2-(2-dimethylamino-acetylamino)-ethoxy]-quinazolin-6-yl-acrylamide] | – | 1430 | – | – | 78 | – | 313 | 84 | 10 | 723
C=CC(=O)Nc1cc2c(Nc3ccc(Br)cc3F)ncnc2cc1OC(C)CNC(C)=O (stereo not drawn) [Example 80, N-[7-(2-acetylamino-1-methyl-ethoxy)-4-(4-bromo-2-fluoro-phenylamino)-quinazolin-6-yl]-acrylamide] | 211 | 77 | 41 | 10 | 36 | 109 | – | – | – | –
C=CC(=O)Nc1cc2c(Nc3ccc(Br)cc3F)ncnc2cc1OCC(C)NC(C)=O (stereo not drawn) [Example 81, N-[7-(2-acetylamino-propoxy)-4-(4-bromo-2-fluoro-phenylamino)-quinazolin-6-yl]-acrylamide] | 896 | 41 | 365 | 2.5 | 154 | 205 | – | – | – | –
C=CC(=O)Nc1cc2c(Nc3ccc(Br)cc3F)ncnc2cc1OC[C@@H](C)NC(C)=O [Example 82, (R)—N-[7-(2-acetylamino-propoxy)-4-(4-bromo-2-fluoro-phenylamino)-quinazolin-6-yl]-acrylamide] | 60 | 158 | 35 | 10 | 29 | 205 | – | – | – | –
C=CC(=O)Nc1cc2c(Nc3ccc(Br)cc3F)ncnc2cc1OC[C@H](C)NC(C)=O [Example 83, (S)—N-[7-(2-acetylamino-propoxy)-4-(4-bromo-2-fluoro-phenylamino)-quinazolin-6-yl]-acrylamide] | 933 | 71 | 113 | 2.87 | 98 | 106 | – | – | – | –
C=CC(=O)Nc1cc2c(Nc3ccc(Br)cc3F)ncnc2cc1OCC(C)NC(=O)CC (stereo not drawn) [Example 84, N-[4-(4-bromo-2-fluoro-phenylamino)-7-(2-propionylamino-propoxy)-quinazolin-6-yl]-acrylamide] | 71 | 94 | 34 | 10 | 26 | 113 | – | – | – | –
